Biological target: Human immunodeficiency virus type 1 protease (Human immunodeficiency virus 1, UniProt Q72874)
Test: Inhibition of wild type HIV1 protease expressed in Escherichia coli using Arg-Glu (EDANS)-Ser-Gln-Asn-Tyr-Pro-Ile-Val-Gln-Lys(DABCYL)-Arg as substrate preincubated for 20 to 30 mins followed by substrate addition and measured for 10 mins by FRET assay
Conditions: not given

Structure (SMILES) | Ki [nM]
COc1ccc(S(=O)(=O)N(CC(C)C)C[C@@H](O)[C@H](Cc2ccccc2)NCCN2CCOCC2)cc1 | 250
CC(C)CN(C[C@@H](O)[C@H](Cc1ccccc1)NC(=O)CN1CCO[C@@H](C)C1)S(=O)(=O)c1ccc(N)cc1 | 28.4
CC(C)CN(C[C@@H](O)[C@H](Cc1ccccc1)NC[C@H](O)CN1CCOCC1)S(=O)(=O)c1ccc(N)cc1 | 197
CC(C)CN(C[C@@H](O)[C@H](Cc1ccccc1)NC(=O)OCCN1CCOCC1)S(=O)(=O)c1ccc(N)cc1 | 0.86
CC(C)CN(C[C@@H](O)[C@H](Cc1ccccc1)NCCN1CCOCC1)S(=O)(=O)c1ccc(N)cc1 | 96.2
CC(C)CN(C[C@@H](O)[C@H](Cc1ccccc1)NC(=O)CN1CCO[C@H](C)C1)S(=O)(=O)c1ccc(C(F)(F)F)cc1 | 61
CC(C)CN(C[C@@H](O)[C@H](Cc1ccccc1)NC(=O)N1CCOCC1)S(=O)(=O)c1ccc(C(F)(F)F)cc1 | 16.8
CC(C)CN(C[C@@H](O)[C@H](Cc1ccccc1)NC(=O)OCCN1CCOCC1)S(=O)(=O)c1ccc(C(F)(F)F)cc1 | 2.22
COc1ccc(S(=O)(=O)N(CC(C)C)C[C@@H](O)[C@H](Cc2ccccc2)NC(=O)OCCN2CCOCC2)cc1 | 0.09
COc1ccc(S(=O)(=O)N(CC(C)C)C[C@@H](O)[C@H](Cc2ccccc2)NCC(=O)N2CCOCC2)cc1 | 298
CC(C)CN(C[C@@H](O)[C@H](Cc1ccccc1)NC(=O)CN1CCOCC1)S(=O)(=O)c1ccc(C(F)(F)F)cc1 | 9.9
COc1ccc(S(=O)(=O)N(CC(C)C)C[C@@H](O)[C@H](Cc2ccccc2)NC(=O)CN2CCO[C@@H](C)C2)cc1 | 5.71
CC(C)CN(C[C@@H](O)[C@H](Cc1ccccc1)NCCN1CCOCC1)S(=O)(=O)c1ccc(C(F)(F)F)cc1 | 336
CC(C)CN(C[C@@H](O)[C@H](Cc1ccccc1)NC(=O)CN1CCO[C@H](C)C1)S(=O)(=O)c1ccc(N)cc1 | 18.9
CC(C)CN(C[C@@H](O)[C@H](Cc1ccccc1)NC(=O)N1CCOCC1)S(=O)(=O)c1ccc(N)cc1 | 7.28
CC(C)CN(C[C@@H](O)[C@H](Cc1ccccc1)NC[C@H](O)CN1CCOCC1)S(=O)(=O)c1ccc(C(F)(F)F)cc1 | 651
COc1ccc(S(=O)(=O)N(CC(C)C)C[C@@H](O)[C@H](Cc2ccccc2)NC(=O)CN2CCOCC2)cc1 | 7.44
CC(C)CN(C[C@@H](O)[C@H](Cc1ccccc1)NC(=O)CN1CCO[C@@H](C)C1)S(=O)(=O)c1ccc(C(F)(F)F)cc1 | 93.9
COc1ccc(S(=O)(=O)N(CC(C)C)C[C@@H](O)[C@H](Cc2ccccc2)NC(=O)CN2CCO[C@H](C)C2)cc1 | 14.2
CC(C)CN(C[C@@H](O)[C@H](Cc1ccccc1)NC(=O)CN1CCOCC1)S(=O)(=O)c1ccc(N)cc1 | 8.45
COc1ccc(S(=O)(=O)N(CC(C)C)C[C@@H](O)[C@H](Cc2ccccc2)NC(=O)N2CCOCC2)cc1 | 0.21
COc1ccc(S(=O)(=O)N(CC(C)C)C[C@@H](O)[C@H](Cc2ccccc2)NC[C@H](O)CN2CCOCC2)cc1 | 750
CC(C)CN(C[C@@H](O)[C@H](Cc1ccccc1)NCC(=O)N1CCOCC1)S(=O)(=O)c1ccc(N)cc1 | 22.8
CC(C)CN(C[C@@H](O)[C@H](Cc1ccccc1)NCC(=O)N1CCOCC1)S(=O)(=O)c1ccc(C(F)(F)F)cc1 | 127

Tested on: Human immunodeficiency virus 1
Test: Potency index, ratio of Darunavir IC50 to compound IC50 for antiviral activity against wild type HIV-1
Assay type: functional
Conditions: not given

Structure (SMILES) | Ratio IC50
COc1ccc(S(=O)(=O)N(CC(C)C)C[C@@H](O)[C@H](Cc2ccccc2)NC(=O)OCCN2CCOCC2)cc1 | 4
COc1ccc(S(=O)(=O)N(CC(C)C)C[C@@H](O)[C@H](Cc2ccccc2)NC(=O)N2CCOCC2)cc1 | 2

Tested on: Human immunodeficiency virus 1
Test: Antiviral activity against VSV-G pseudotyped wild type HIV1 NL4-3 in human SupT1 cells infected with supernatants of virus particles extracted from human 293T cells infected with wild type HIV1 NL4-3 incubated for 48 hrs assessed as inhibition of late stage viral infection by single-round infection based luciferase reporter assay
Assay type: functional, organism-based
Conditions: Human immunodeficiency virus 1, NL4-3, 48 h

Structure (SMILES) | EC50 [nM]
COc1ccc(S(=O)(=O)N(CC(C)C)C[C@@H](O)[C@H](Cc2ccccc2)NC(=O)OCCN2CCOCC2)cc1 | 1200
COc1ccc(S(=O)(=O)N(CC(C)C)C[C@@H](O)[C@H](Cc2ccccc2)NC(=O)N2CCOCC2)cc1 | 2000
CC(C)CN(C[C@@H](O)[C@H](Cc1ccccc1)NC(=O)O[C@H]1CO[C@H]2OCC[C@H]21)S(=O)(=O)c1ccc(N)cc1 | 3.9

Tested on: Human immunodeficiency virus 1
Test: Antiviral activity against wild type HIV-1
Assay type: functional, organism-based
Conditions: not given

Structure (SMILES) | IC50 [nM]
COc1ccc(S(=O)(=O)N(CC(C)C)C[C@@H](O)[C@H](Cc2ccccc2)NCCN2CCOCC2)cc1 | 1110
CC(C)CN(C[C@@H](O)[C@H](Cc1ccccc1)NC(=O)CN1CCO[C@@H](C)C1)S(=O)(=O)c1ccc(N)cc1 | 127
CC(C)CN(C[C@@H](O)[C@H](Cc1ccccc1)NC[C@H](O)CN1CCOCC1)S(=O)(=O)c1ccc(N)cc1 | 881
CC(C)CN(C[C@@H](O)[C@H](Cc1ccccc1)NC(=O)OCCN1CCOCC1)S(=O)(=O)c1ccc(N)cc1 | 3.85
CC(C)CN(C[C@@H](O)[C@H](Cc1ccccc1)NCCN1CCOCC1)S(=O)(=O)c1ccc(N)cc1 | 429
CC(C)CN(C[C@@H](O)[C@H](Cc1ccccc1)NC(=O)CN1CCO[C@H](C)C1)S(=O)(=O)c1ccc(C(F)(F)F)cc1 | 272
CC(C)CN(C[C@@H](O)[C@H](Cc1ccccc1)NC(=O)N1CCOCC1)S(=O)(=O)c1ccc(C(F)(F)F)cc1 | 75
CC(C)CN(C[C@@H](O)[C@H](Cc1ccccc1)NC(=O)OCCN1CCOCC1)S(=O)(=O)c1ccc(C(F)(F)F)cc1 | 9.92
COc1ccc(S(=O)(=O)N(CC(C)C)C[C@@H](O)[C@H](Cc2ccccc2)NC(=O)OCCN2CCOCC2)cc1 | 0.41
COc1ccc(S(=O)(=O)N(CC(C)C)C[C@@H](O)[C@H](Cc2ccccc2)NCC(=O)N2CCOCC2)cc1 | 1330
CC(C)CN(C[C@@H](O)[C@H](Cc1ccccc1)NC(=O)CN1CCOCC1)S(=O)(=O)c1ccc(C(F)(F)F)cc1 | 44.2
COc1ccc(S(=O)(=O)N(CC(C)C)C[C@@H](O)[C@H](Cc2ccccc2)NC(=O)CN2CCO[C@@H](C)C2)cc1 | 25.5
CC(C)CN(C[C@@H](O)[C@H](Cc1ccccc1)NCCN1CCOCC1)S(=O)(=O)c1ccc(C(F)(F)F)cc1 | 1500
CC(C)CN(C[C@@H](O)[C@H](Cc1ccccc1)NC(=O)CN1CCO[C@H](C)C1)S(=O)(=O)c1ccc(N)cc1 | 84.6
CC(C)CN(C[C@@H](O)[C@H](Cc1ccccc1)NC(=O)N1CCOCC1)S(=O)(=O)c1ccc(N)cc1 | 32.5
CC(C)CN(C[C@@H](O)[C@H](Cc1ccccc1)NC[C@H](O)CN1CCOCC1)S(=O)(=O)c1ccc(C(F)(F)F)cc1 | 1500
COc1ccc(S(=O)(=O)N(CC(C)C)C[C@@H](O)[C@H](Cc2ccccc2)NC(=O)CN2CCOCC2)cc1 | 33.2
CC(C)CN(C[C@@H](O)[C@H](Cc1ccccc1)NC(=O)CN1CCO[C@@H](C)C1)S(=O)(=O)c1ccc(C(F)(F)F)cc1 | 419
COc1ccc(S(=O)(=O)N(CC(C)C)C[C@@H](O)[C@H](Cc2ccccc2)NC(=O)CN2CCO[C@H](C)C2)cc1 | 63.6
CC(C)CN(C[C@@H](O)[C@H](Cc1ccccc1)NC(=O)CN1CCOCC1)S(=O)(=O)c1ccc(N)cc1 | 37.7
COc1ccc(S(=O)(=O)N(CC(C)C)C[C@@H](O)[C@H](Cc2ccccc2)NC(=O)N2CCOCC2)cc1 | 0.95
COc1ccc(S(=O)(=O)N(CC(C)C)C[C@@H](O)[C@H](Cc2ccccc2)NC[C@H](O)CN2CCOCC2)cc1 | 1500
CC(C)CN(C[C@@H](O)[C@H](Cc1ccccc1)NCC(=O)N1CCOCC1)S(=O)(=O)c1ccc(N)cc1 | 102
CC(C)CN(C[C@@H](O)[C@H](Cc1ccccc1)NCC(=O)N1CCOCC1)S(=O)(=O)c1ccc(C(F)(F)F)cc1 | 568

Tested on: Human immunodeficiency virus 1
Test: Antiviral activity against VSV-G pseudotyped HIV1 NL4-3 infected in human SupT1 cells assessed as inhibition of early stage viral infection at 10 uM after 48 hrs by luciferase assay relative to control
Assay type: functional
Conditions: Human immunodeficiency virus 1, NL4-3, SUP-T1, 48 h

Structure (SMILES) | inhibition at 10 µM [%]
COc1ccc(S(=O)(=O)N(CC(C)C)C[C@@H](O)[C@H](Cc2ccccc2)NC(=O)OCCN2CCOCC2)cc1 | 5
COc1ccc(S(=O)(=O)N(CC(C)C)C[C@@H](O)[C@H](Cc2ccccc2)NC(=O)N2CCOCC2)cc1 | 12

Tested on: Human immunodeficiency virus 1
Test: Antiviral activity against VSV-G pseudotyped HIV1 NL4-3 in human TZM-bl cells infected with virus particles extracted from human SupT1 cells infected with HIV1 NL4-3 at 10 uM incubated for 48 hrs assessed as inhibition of late stage viral infection by luciferase assay relative to control
Assay type: functional
Conditions: Human immunodeficiency virus 1, NL4-3, TZM

Structure (SMILES) | inhibition at 10 µM [%]
COc1ccc(S(=O)(=O)N(CC(C)C)C[C@@H](O)[C@H](Cc2ccccc2)NC(=O)OCCN2CCOCC2)cc1 | 94
COc1ccc(S(=O)(=O)N(CC(C)C)C[C@@H](O)[C@H](Cc2ccccc2)NC(=O)N2CCOCC2)cc1 | 91
CC(C)CN(C[C@@H](O)[C@H](Cc1ccccc1)NC(=O)O[C@H]1CO[C@H]2OCC[C@H]21)S(=O)(=O)c1ccc(N)cc1 | 100

Biological target: Human immunodeficiency virus type 1 protease (Human immunodeficiency virus 1) (UniProt Q72874)
Test: Potency index, ratio of Darunavir Ki to compound Ki for inhibition of wild type HIV1 protease expressed in Escherichia coli using Arg-Glu (EDANS)-Ser-Gln-Asn-Tyr-Pro-Ile-Val-Gln-Lys(DABCYL)-Arg as substrate preincubated for 20 to 30 mins followed by substrate addition and measured for 10 mins by FRET assay
Conditions: not given

Structure (SMILES) | Ratio Ki
COc1ccc(S(=O)(=O)N(CC(C)C)C[C@@H](O)[C@H](Cc2ccccc2)NC(=O)OCCN2CCOCC2)cc1 | 4
COc1ccc(S(=O)(=O)N(CC(C)C)C[C@@H](O)[C@H](Cc2ccccc2)NC(=O)N2CCOCC2)cc1 | 2

Tested on: Human immunodeficiency virus 1
Test: Antiviral activity against VSV-G pseudotyped darunavir-resistant HIV1 NL4-3 in human SupT1 cells infected with supernatants of virus particles extracted from human 293T cells infected with darunavir-resistant HIV1 NL4-3 incubated for 48 hrs assessed as inhibition of late stage viral infection by single-round infection based luciferase reporter assay
Assay type: functional, organism-based
Conditions: Human immunodeficiency virus 1, NL4-3, 48 h

Structure (SMILES) | EC50 [nM]
COc1ccc(S(=O)(=O)N(CC(C)C)C[C@@H](O)[C@H](Cc2ccccc2)NC(=O)OCCN2CCOCC2)cc1 | 9500
COc1ccc(S(=O)(=O)N(CC(C)C)C[C@@H](O)[C@H](Cc2ccccc2)NC(=O)N2CCOCC2)cc1 | 4900
CC(C)CN(C[C@@H](O)[C@H](Cc1ccccc1)NC(=O)O[C@H]1CO[C@H]2OCC[C@H]21)S(=O)(=O)c1ccc(N)cc1 | 240

From ChEMBL document CHEMBL4616700, “Novel HIV-1 Protease Inhibitors with Morpholine as the P2 Ligand to Enhance Activity against DRV-Resistant Variants” (ACS Med Chem Lett, 2020)
